Experimental data as given in publication PMC3502511, “Inhibition of the Prokaryotic Pentameric Ligand-Gated Ion Channel ELIC by Divalent Cations” (PLoS Biology, 2012).
“And” between values parts separate entries of the source, which are not always exact repeats. Equal values may be shown once. Read-outs that look alike come from different tables or passages of the source.

Columns and labels:
ELIC R91A = biological target: T1, ELIC R91A (Dickeya chrysanthemi, UniProt P0C7B7, INS163G/R91A); assay: Two-electrode voltage clamp, ELIC R91A in oocytes; assay type: cell-based, Erwinia chrysanthemi; conditions: for Slope: Schild plot slope; for pA: agonist cysteamine
T1 construct: expressed in transfected cells; host or cells: X. laevis oocytes
Description: (§1) Constructs containing the gene of either the WT or mutant channels preceded by the signal sequence of the chicken α7nAchR were cloned into the pTLN vector for expression in X. laevis oocytes. After linearization of the plasmid DNA by MluI, capped complementary RNA was transcribed with the mMessage mMachine kit (Ambion) and purified with the RNeasy kit (Qiagen). For expression, 1–50 ng of RNA was injected into defolliculated oocytes. Two-electrode voltage clamp measurements were performed 1 d after injection at 20°C (OC-725B, Warner Instrument Corp.). Currents were recorded in bath solutions containing 10 mM HEPES (pH 7), 130 mM NaCl, and the indicated concentrations of cysteamine and divalent cations. In case of solutions containing Zn^2+, cysteamine was replaced by propylamine. The membrane potential in all dose–response measurements was set to −40 mV. As ELIC is permeable to divalent cations, we tested if endogenous calcium-activated chloride channels affected our measurements. To chelate intracellular calcium ions, the oocytes were incubated for 15 to 30 min in bath solutions lacking divalent ions but containing 10 µM BAPTA-AM.

ELIC WT = biological target: T2, ELIC WT (Dickeya chrysanthemi, UniProt P0C7B7, INS163G); assay: cell-based; assay type: cell-based, Erwinia chrysanthemi; conditions: for Slope: Schild plot slope; for Ki: Schild analysis, read-out: Ki app
T2 construct: expressed in transfected cells; host or cells: X. laevis oocytes (cRNA injection, pTLN vector)
Description: as §1

ELIC D113A/D158A = biological target: T3, ELIC D113A/D158A (Dickeya chrysanthemi, UniProt P0C7B7, D113A/D158A/INS163G); assay: cell-based; assay type: cell-based, Erwinia chrysanthemi; conditions: D113A/D158A; for Slope: Schild plot slope; for pA / effects on the agonist dose-response curves in the double mutant: agonist cysteamine
T3 construct: expressed in transfected cells; host or cells: X. laevis oocytes
Description: as §1

ELIC N251A = biological target: T4, ELIC N251A (Dickeya chrysanthemi, UniProt P0C7B7, N250A); assay: Two-electrode voltage clamp, ELIC N251A in oocytes; assay type: cell-based, Erwinia chrysanthemi
T4 construct: expressed in transfected cells; host or cells: X. laevis oocytes
Description: as §1

ELIC D113A = biological target: T5, ELIC D113A (Dickeya chrysanthemi, UniProt P0C7B7, D113A/INS163G); assay: Two-electrode voltage clamp, ELIC D113A in oocytes; assay type: cell-based, Erwinia chrysanthemi
T5 construct: expressed in transfected cells; host or cells: X. laevis oocytes
Description: as §1

ELIC D86A = biological target: T6, ELIC D86A (Dickeya chrysanthemi, UniProt P0C7B7, D86A/INS163G); assay: Two-electrode voltage clamp, ELIC D86A in oocytes; assay type: cell-based, Erwinia chrysanthemi
T6 construct: expressed in transfected cells; host or cells: X. laevis oocytes
Description: as §1

ELIC E150A = biological target: T7, ELIC E150A (Dickeya chrysanthemi, UniProt P0C7B7, E150A/INS163G); assay: Two-electrode voltage clamp, ELIC E150A in oocytes; assay type: cell-based, Erwinia chrysanthemi
T7 construct: expressed in transfected cells; host or cells: X. laevis oocytes
Description: as §1

ELIC D113N = biological target: T8, ELIC D113N (Dickeya chrysanthemi, UniProt P0C7B7, D113N/INS163G); assay: Two-electrode voltage clamp, ELIC D113N in oocytes; assay type: cell-based, Erwinia chrysanthemi
T8 construct: expressed in transfected cells; host or cells: X. laevis oocytes
Description: as §1

ELIC D158A = biological target: T9, ELIC D158A (Dickeya chrysanthemi, UniProt P0C7B7, D158A/INS163G); assay: Two-electrode voltage clamp, ELIC D158A in oocytes; assay type: cell-based, Erwinia chrysanthemi
T9 construct: expressed in transfected cells; host or cells: X. laevis oocytes
Description: as §1

ELIC S84A = biological target: T10, ELIC S84A (Dickeya chrysanthemi, UniProt P0C7B7, INS163G/S84A); assay: Two-electrode voltage clamp, ELIC S84A in oocytes; assay type: cell-based, Erwinia chrysanthemi; conditions: S84A
T10 construct: expressed in transfected cells; host or cells: X. laevis oocytes
Description: as §1

ELIC D158N = biological target: T11, ELIC D158N (Dickeya chrysanthemi, UniProt P0C7B7, D158N/INS163G); assay: Two-electrode voltage clamp, ELIC D158N in oocytes; assay type: cell-based, Erwinia chrysanthemi
T11 construct: expressed in transfected cells; host or cells: X. laevis oocytes
Description: as §1

ELIC E150Q = biological target: T12, ELIC E150Q (Dickeya chrysanthemi, UniProt P0C7B7, E150Q/INS163G); assay: Two-electrode voltage clamp, ELIC E150Q in oocytes; assay type: cell-based, Erwinia chrysanthemi
T12 construct: expressed in transfected cells; host or cells: X. laevis oocytes
Description: as §1

ELIC = biological target: T13, ELIC (Dickeya chrysanthemi, UniProt P0C7B7, INS163G); conditions: high Ca^2+ concentration; cited from earlier work
T13 construct: expressed in transfected cells; host or cells: HEK 293 cells (ATCC CRL-1573), pcDNA3

[1] = WT, Schild plot x-intercept (log of mM), agonist cysteamine, −40 mV
[2] = Schild analysis, read-out: Ki app

CC(=O)OCC[N+](C)(C)C [ACh, acetylcholine]
increase in the Schild affinity in the mutant R91A (ELIC R91A; R91A versus WT): 10 fold | Slope (ELIC R91A; R91A): 0.7±0.1 | pA (ELIC R91A; R91A): −0.77±0.05 | pA (ELIC WT; WT/1 mM Ca^2+ present, agonist cysteamine): 0.35±0.01 | Slope (ELIC WT; WT/1 mM Ca^2+): 1.1±0.01 | pA (ELIC WT; WT/.25 mM Ca^2+ present, agonist cysteamine): 0.06±0.06 | Slope (ELIC WT; WT/.25 mM Ca^2+): 0.9±0.1 | pA (ELIC WT; WT/.5 mM Ca^2+ present, agonist cysteamine): 0.11±0.09 | Slope (ELIC WT; WT/.5 mM Ca^2+): 0.9±0.01 | Slope (ELIC WT; WT, agonist cysteamine): 1.0±0.1 | Slope (ELIC WT; WT, agonist cysteamine, listed as acetylcholine): unity | pA (ELIC WT; [1]): 0.21±0.06 | Slope (ELIC D113A/D158A): 0.8±0.1 | pA (ELIC D113A/D158A): 0.32±0.06

[Ba+2] [Ba^2+, barium]
Ki (ELIC WT; WT, agonist cysteamine): 850 µM | Slope (ELIC WT; WT, agonist cysteamine): 1.1±0.03 | pA (ELIC WT; [1]): −0.07±0.01 | Ki (ELIC D113A/D158A; [2]): 6.5 mM | Slope (ELIC D113A/D158A): 0.6±0.02 | effects on the agonist dose-response curves in the double mutant (ELIC D113A/D158A): virtually abolishes | pA (ELIC D113A/D158A): 0.81±0.02

[Ca+2] [Ca^2+, calcium]
Ki (ELIC N251A; [2]): 530 µM | Slope (ELIC N251A; Schild plot slope): 0.9±0.2 | pA (ELIC N251A; agonist cysteamine): −0.27±0.19 | Ki (ELIC R91A; R91A, Schild analysis, read-out: Ki app): 210 µM | Slope (ELIC R91A; R91A): 0.7±0.1 | pA (ELIC R91A; R91A): −0.69±0.03 | Ki (ELIC D113A; [2]): 4.9 mM | Slope (ELIC D113A; Schild plot slope): 1.0±0.3 | pA (ELIC D113A; agonist cysteamine): 0.69±0.04 | Ki (ELIC D86A; [2]): 250 µM | Slope (ELIC D86A; Schild plot slope): 0.8±0.1 | pA (ELIC D86A; agonist cysteamine): −0.60±0.11 | Ki (ELIC E150A; [2]): 1.7 mM | Slope (ELIC E150A; Schild plot slope): 1.0±0.2 | pA (ELIC E150A; agonist cysteamine): 0.23±0.12 | Ki (ELIC D113N; [2]): 950 µM | Slope (ELIC D113N; Schild plot slope): 1.0±0.01 | pA (ELIC D113N; agonist cysteamine): −0.02±0.08 | Ki (ELIC D158A; [2]): 5.4 mM | Slope (ELIC D158A; Schild plot slope): 1.2±0.1 | pA (ELIC D158A; agonist cysteamine): 0.74±0.01 | Ki (ELIC S84A; [2]): 150 µM | Slope (ELIC S84A; Schild plot slope): 0.6±0.2 | pA (ELIC S84A; agonist cysteamine): −0.83±0.14 | Ki (ELIC D158N; [2]): 3.2 mM | Slope (ELIC D158N; Schild plot slope): 0.5±0.2 | pA (ELIC D158N; agonist cysteamine): 0.50±0.17 | Ki (ELIC E150Q; [2]): 1.2 mM | Slope (ELIC E150Q; Schild plot slope): 0.9±0.3 | pA (ELIC E150Q; agonist cysteamine): 0.09±0.20 | maximum decrease of single channel currents (ELIC): about 50% | reduction of maximum agonist response (ELIC WT; 5 mM Ca^2+, saturating cysteamine, −40 mV): 55% | pA (ELIC WT; WT/1 mM ACh present, agonist cysteamine): −0.65±0.01 | Ki (ELIC WT; WT/1 mM ACh): 220 µM | Slope (ELIC WT; WT/1 mM ACh): 0.9±0.02 | pA (ELIC WT; WT/BAPTA (BAPTA-AM-treated oocytes), agonist cysteamine): −0.69±0.11 | Ki (ELIC WT; WT/BAPTA): 200 µM | Slope (ELIC WT; WT/BAPTA): 1.0±0.3 | Ki (ELIC WT; WT, agonist cysteamine): 260 µM | Slope (ELIC WT; WT, agonist cysteamine): 0.8 and 0.8±0.05 | pA (ELIC WT; [1]): −0.57±0.03 | IC50 (ELIC WT; WT, maximum cysteamine response, read-out: IC50 of decline of maximum current response (Langmuir equation)): 6 mM | decrease in the agonist maximum response (ELIC WT; at 6 mM calcium, channel block subtracted): about 50% | effects on the agonist dose-response curves in the double mutant (ELIC D113A/D158A): virtually abolishes

[Mg+2] [Mg^2+]
Ki (ELIC WT; WT, agonist cysteamine): 430 µM | Slope (ELIC WT; WT, agonist cysteamine): 0.9±0.01 | pA (ELIC WT; [1]): −0.36±0.02
